The values that follow come from US6509369B2, “Anti-inflammatory compounds” (Ortho-McNeil Pharmaceutical, Inc., priority 1997, dated 2003).

For one assay, the system named is oxazolone-induced ear swelling (MOCH) in albino male CD-1 mice. Description: mouse oxazolone-induced contact hypersensitization (MOCH) ear swelling. It is filed as in vivo. To be noted: mouse, in vivo. Also on record: % Inhibition MOCH: concentration or dose not given beside the values. Here is the method: Several triphenylpropanamide compounds of this invention, having varying affinities for the human glucocorticoid receptor, were tested for topical antiinflammatory activity in mouse ear inflammation models. […] Compounds having receptor affinities closer to hydrocortisone were as nearly active as hydrocortisone in suppressing mouse oxazolone-induced contact hypersensitization (MOCH) and phorbol ester-induced ear edema. The in vivo studies of this example were conducted as follows.
In determining the MOCH using the compounds of this invention, albino male CD-1 mice, 7-9 weeks old were induced on the shaved abdomen with 50 μl of 3% oxazolone in acetone/corn oil (Day 0). On Day 5, a 20 μl volume of 2% oxazolone in acetone was applied to the dorsal left ear of the mouse . Compounds (made in ethanol/propylene glycol, 70:30) were applied to the left ear in 20 μl volume, one hour after oxazolone challenge. The right ear was not treated. The mice were sacrificed by carbon dioxide inhalation 24 hours after oxazolone challenge, the left and right ears were removed and a 7 mm biopsy was removed from each ear and weighed. The difference in biopsy weights between the right and left ears was calculated. Antiinflammatory effects of compounds were evident as an inhibition of the increase in ear weight.
Turning to `O=C(Cc1ccccn1)NCC(c1ccc(C(F)(F)F)cc1)C(c1ccccc1)c1ccccc1` (centres unmarked) [Compound 142], the “% Inhibition MOCH” value came out at 39%. As to `O=C(Cc1ccc([N+](=O)[O-])cc1)NCC(c1ccc2c(c1)OCO2)C(c1ccccc1)c1ccccc1` (centres unmarked) [Compound 105], the “% Inhibition MOCH” value is 24%. Regarding `O=C(Cc1ccccn1)NCC(c1ccc2c(c1)OCO2)C(c1ccccc1)c1ccccc1` (centres unmarked) [Compound 102], the “% Inhibition MOCH” value is 51%. For the compound `O=C(Cc1ccccc1)NCC(c1ccc2c(c1)OCO2)C(c1ccccc1)c1ccccc1` (centres unmarked) [Compound 109], the “% Inhibition MOCH” value is 22%. Consider `Cc1c(CC(=O)NCC(c2ccc3c(c2)OCO3)C(c2ccccc2)c2ccccc2)sc2ccc(Cl)cc12` (centres unmarked) [Compound 100], for which the “% Inhibition MOCH” value was found to be 18%.

As to `O=C(Cc1cc2cc(Cl)ccc2s1)NCC(c1ccc2c(c1)OCO2)C(c1ccccc1)c1ccccc1` (centres unmarked) [Compound 101], the “% Inhibition MOCH” value worked out at 26%. For `Cc1ccc(C(=O)NCC(c2ccc3c(c2)OCO3)C(c2ccccc2)c2ccccc2)cc1[N+](=O)[O-]` (centres unmarked) [Compound 122], the “% Inhibition MOCH” value amounted to 33%. On the same count and under the same terms, the figure for `O=C(NCC(c1ccc2c(c1)OCO2)C(c1ccccc1)c1ccccc1)c1ccc(F)cc1F` (centres unmarked) [Compound 127] is 61%; for `O=C(Cc1cccc(F)c1)NCC(c1ccc2c(c1)OCO2)C(c1ccccc1)c1ccccc1` (centres unmarked) [Compound 110] it is 20%. Turning to `COc1ccccc1CC(=O)NCC(c1ccc2c(c1)OCO2)C(c1ccccc1)c1ccccc1` (centres unmarked) [Compound 107], the “% Inhibition MOCH” value amounted to 28%.

Staying with this assay, now noted: topical to mouse ear, 1 mg, one hour after oxazolone challenge, ear biopsy weight at 24 hours.
For `O=C(NCC(c1ccccc1)C(c1ccccc1)c1ccccc1)Nc1ccccc1` (centres unmarked) [Compound 50], the “Oxazolone Ear Swelling (MOCH) % inhibition vs. Vehicle at 1 mg” value came to 30%.

The target in the next assay is T1, human glucocorticoid receptor (hGR) (Homo sapiens, UniProt P04150).
T1 construct: made in house; host or cells: Sf21 insect cells infected with baculovirus hGR, OR IM9 lymphoblast cell line (endogenous hGR)
T1 sequence (P04150 1-777): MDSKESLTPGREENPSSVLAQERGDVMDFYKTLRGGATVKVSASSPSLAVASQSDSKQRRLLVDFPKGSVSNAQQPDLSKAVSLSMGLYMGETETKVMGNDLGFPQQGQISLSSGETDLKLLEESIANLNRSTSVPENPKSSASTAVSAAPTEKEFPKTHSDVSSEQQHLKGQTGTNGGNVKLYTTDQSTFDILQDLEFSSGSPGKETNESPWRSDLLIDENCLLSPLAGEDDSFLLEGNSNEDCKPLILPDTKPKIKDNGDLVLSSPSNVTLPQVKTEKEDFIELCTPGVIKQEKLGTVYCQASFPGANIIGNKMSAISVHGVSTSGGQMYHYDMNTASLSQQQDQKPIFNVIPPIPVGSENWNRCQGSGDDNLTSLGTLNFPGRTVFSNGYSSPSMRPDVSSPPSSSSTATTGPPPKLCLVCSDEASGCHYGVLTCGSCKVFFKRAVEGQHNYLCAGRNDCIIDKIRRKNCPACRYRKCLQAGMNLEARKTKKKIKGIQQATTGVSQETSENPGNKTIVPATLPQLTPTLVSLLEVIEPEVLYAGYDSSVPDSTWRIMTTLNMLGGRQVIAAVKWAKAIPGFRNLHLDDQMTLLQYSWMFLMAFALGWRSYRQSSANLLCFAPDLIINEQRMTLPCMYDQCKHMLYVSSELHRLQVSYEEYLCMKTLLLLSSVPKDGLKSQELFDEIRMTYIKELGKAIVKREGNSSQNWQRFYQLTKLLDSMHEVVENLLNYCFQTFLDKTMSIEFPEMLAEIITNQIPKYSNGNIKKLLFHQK
Description: human glucocorticoid receptor binding assay (displacement of 3(H) Triamcinolone acetonide).
Settings: not given
Here is the method: A human glucocorticoid receptor binding assay was carried out to determine the extent to which the compounds of this invention have the ability to bind to human glucocorticoid receptors. This binding ability may be indicative of the antiinflammatory activity of the compound. The test was carried out as follows.
Human glucocorticoid receptors were prepared from either insect cells (Sf21) infected with baculovirus hGR or from a lymphoblast cell line which expresses high levels of endogenous hGR (IM9). The receptor binding reactions, with or without test compounds, were set up in 96-well microtiter plates which were previously siliconized with SIGMACOTE™, a chlorinated organopolysiloxane in heptane. The binding components, 3(H) Triamcinolone acetonide (TAA), glycerol/molybdate-containing buffer and unlabeled compounds were added to the wells using a combination of BIOMEK laboratory automation system and repeat pipettes. After four hours of incubation, the samples were precipitated with polyethylene glycol and filtered through Whatman GF/F paper using a TOMTEK cell harvester. The filter mate with 96 samples were bound to a solid-phase scintillant and directly counted in a BETAPLATE counter. […] The activity of test compounds to displace 3(H) TAA binding to hGR is also expressed as percent inhibition at 1 μM.
One may read the IC50 as the concentration that gives 50% inhibition. With `Cc1ccc(C(=O)NCC2(c3ccccc3)CC2(c2ccccc2)c2ccccc2)s1` (centres unmarked) [Compound 91], the IC50 came to 421 nM. On to `O=C(NCC(c1ccccc1)C(c1ccccc1)c1ccccc1)Oc1ccccc1` (centres unmarked) [Compound 56], for which the IC50 was 310 nM.

Consider `O=C(NCC(c1ccccc1)C(c1ccccc1)c1ccccc1)Nc1ccccc1Cl` (centres unmarked) [Compound 52], for which the IC50 was found to be 273 nM.

For `O=C(NCC1(c2ccccc2)CC1(c1ccccc1)c1ccccc1)c1cccs1` (centres unmarked) [Compound 90], the IC50 is 612 nM.

Regarding `COc1ccccc1CCC(=O)NCC(c1ccccc1)C1c2ccccc2CCc2ccccc21` (centres unmarked) [Compound 74], the IC50 turned out to be 388 nM. As to `O=C(NCC(c1ccccc1)C(c1ccccc1)c1ccccc1)C(c1ccccc1)c1ccccc1` (centres unmarked) [Compound 13], the IC50 is 780 nM.

For `O=C(Cc1cccs1)NCC(c1ccc(I)cc1)C(c1ccccc1)c1ccccc1` (centres unmarked) [Compound 33], the IC50 came to 8.6 nM. Regarding `CCCC(=O)NCC(c1ccccc1)C(c1ccccc1)c1ccccc1` (centres unmarked) [Compound 60], the IC50 is 446 nM.

As for `CC(C)(C)C(=O)NCC(c1ccccc1)C(c1ccccc1)c1ccccc1` (centres unmarked) [Compound 64], the IC50 was found to be 296 nM.

`O=S(=O)(Cc1ccccc1)NCC(c1ccccc1)C(c1ccccc1)c1ccccc1` (centres unmarked) [Compound 25]: the IC50 is 210 nM. For `Cc1ccc(S(=O)(=O)NCC(c2ccccc2)C(c2ccccc2)c2ccccc2)cc1` (centres unmarked) [Compound 26], the IC50 amounted to 175 nM.

Consider `CC(C)CC(=O)NCC(c1ccccc1)C(c1ccccc1)c1ccccc1` (centres unmarked) [Compound 63], for which the IC50 was 316 nM. In the case of `O=C(CCc1ccccc1Cl)NCC(c1ccccc1)C(c1ccccc1)c1ccccc1` (centres unmarked) [Compound 22], the IC50 stood at 103 nM. As to `O=C(Cc1cccs1)NCC(c1ccccc1)C1c2ccccc2CCc2ccccc21` (centres unmarked) [Compound 75], the IC50 turned out to be 363 nM. For the compound `O=C(C=Cc1cccs1)NCC(c1ccccc1)C(c1ccccc1)c1ccccc1` (centres unmarked) [Compound 38], the IC50 turned out to be 189 nM. With `O=C(Cc1cccs1)NCC(c1ccccc1)C(c1ccc(F)cc1)c1ccc(F)cc1` (centres unmarked) [Compound 31], the IC50 came out at 8 nM. Regarding `O=C(Cc1ccccc1)NCC(c1ccccc1)C1c2ccccc2CCc2ccccc21` (centres unmarked) [Compound 73], the IC50 was found to be 770 nM. As to `O=C(Cc1ccc(Cl)c(Cl)c1)NCC(c1ccccc1)C(c1ccccc1)c1ccccc1` (centres unmarked) [Compound 9], the IC50 stood at 1480 nM. Take `O=C(NCc1ccccc1)NCC(c1ccccc1)C(c1ccccc1)c1ccccc1` (centres unmarked) [Compound 54]: the IC50 was found to be 219 nM. Turning to `Cc1ccc(C(=O)NCC(c2ccccc2)C2c3ccccc3CCc3ccccc32)s1` (centres unmarked) [Compound 77], the IC50 is 882 nM. Take `O=C(NCC(c1ccccc1)C(c1ccccc1)c1ccccc1)Nc1ccccc1F` (centres unmarked) [Compound 53]: the IC50 is 293 nM. For `COc1ccc(CC(=O)NCC(c2ccccc2)C(c2ccccc2)c2ccccc2)cc1` (centres unmarked) [Compound 6], the IC50 was 910 nM. For the compound `O=C(C=Cc1ccsc1)NCC(c1ccccc1)C(c1ccccc1)c1ccccc1` (centres unmarked) [Compound 39], the IC50 was found to be 727 nM. Same read-out and setting: then `O=C(NCC(c1ccccc1)C(c1ccccc1)c1ccccc1)Oc1ccc(F)cc1` (centres unmarked) [Compound 58], with 240 nM; and `Cc1ccc(S(=O)(=O)CC(=O)NCC(c2ccccc2)C(c2ccccc2)c2ccccc2)cc1` (centres unmarked) [Compound 28], with 57 nM; and `O=C(Cc1cccs1)NCC1(c2ccccc2)CC1(c1ccccc1)c1ccccc1` (centres unmarked) [Compound 88], with 425 nM.

Take `O=S(=O)(NCC(c1ccc(Cl)cc1)C(c1ccccc1)c1ccccc1)c1cccs1` (centres unmarked) [Compound 41]: the IC50 worked out at 491 nM.

As for `O=C(CS(=O)(=O)c1ccccc1)NCC(c1ccccc1)C(c1ccccc1)c1ccccc1` (centres unmarked) [Compound 27], the IC50 worked out at 67 nM. Turning to `CCCCC(=O)NCC(c1ccccc1)C(c1ccccc1)c1ccccc1` (centres unmarked) [Compound 62], the IC50 was determined as 121 nM. For `O=C(Cc1ccsc1)NCC(c1ccccc1)C1c2ccccc2CCc2ccccc21` (centres unmarked) [Compound 76], the IC50 came out at 571 nM.

For `CCOC(=O)CC(=O)NCC(c1ccccc1)C(c1ccccc1)c1ccccc1` (centres unmarked) [Compound 65], the IC50 came to 937 nM. In the case of `Cc1ccc(C(=O)NCC(c2ccccc2)C(c2ccccc2)c2ccccc2)s1` (centres unmarked) [Compound 30], the IC50 is 50 nM. Take `CN(CC(c1ccccc1)C(c1ccccc1)c1ccccc1)C(=O)Cc1cccs1` (centres unmarked) [Compound 44]: the IC50 amounted to 133 nM. Turning to `O=C(Cc1ccsc1)NCC(c1ccc(Cl)cc1)C(c1ccccc1)c1ccccc1` (centres unmarked) [Compound 35], the IC50 is 54 nM.

Take `CC(C)C(=O)NCC(c1ccccc1)C(c1ccccc1)c1ccccc1` (centres unmarked) [Compound 61]: the IC50 came to 584 nM.

Take `O=C(NCC(c1ccccc1)C(c1ccccc1)c1ccccc1)c1cc2ccccc2s1` (centres unmarked) [Compound 43]: the IC50 came to 495 nM. Consider `O=C(NCc1ccc(Cl)cc1Cl)NCC(c1ccccc1)C(c1ccccc1)c1ccccc1` (centres unmarked) [Compound 55], for which the IC50 turned out to be 121 nM. Consider `O=C(NCC(c1ccccc1)C(c1ccccc1)c1ccccc1)Oc1ccc2ccccc2c1` (centres unmarked) [Compound 59], for which the IC50 was 155 nM. `COc1ccccc1CCC(=O)NCC1(c2ccccc2)CC1(c1ccccc1)c1ccccc1` (centres unmarked) [Compound 81]: the IC50 stood at 709 nM.

Still in this assay, the particulars now being: concentration not given.
Consider `COc1ccccc1NC(=O)NCC(c1ccccc1)C(c1ccccc1)c1ccccc1` (centres unmarked) [Compound 51], for which the “hGR, value given as %” value is reported as 32%. In the case of `COc1ccccc1CC(=O)NCC(c1ccccc1)C1c2ccccc2-c2ccccc21` (centres unmarked) [Compound 67], the “hGR, value given as %” value is 23%. On to `COc1ccccc1CCC(=O)NCC(c1ccccc1)C1c2ccccc2-c2ccccc21` (centres unmarked) [Compound 70], for which the “hGR, value given as %” value stood at 53%.
